Source: patent US4277605A, “Chemical compounds” (priority 1980, dated 1981)

Experiments:
[1] = Antidiarrheal activity, castor oil test in rats (modified Niemegeers); type: in vivo, male Sprague-Dawley rats; settings: for ED50: Rattus norvegicus; for separation between antidiarrheal and analgetic activity (in words): from RAS; for RAS (Relative Antidiarrheal Specificity): Analgetic ED50 divided by the Antidiarrheal ED50, oral; for Antidiarrheal Activity ED50 (95% Confidence Limits) Castor Oil Test in Rats: 60 min
Description: A modification of the castor oil test described by Niemegeers [Arzneim.-Forsch., 22, 516-518 (1972)] was used. Male Sprague-Dawley rats (180-220 g) were dosed orally (in one case, subcutaneously) with a test compound or vehicle 1 hour before receiving a standard dose of castor oil orally (3 ml/rat). The rats were individually caged and examined for the presence of diarrhea hourly. Control animals had 100% incidence of diarrhea 1 hour after administering the castor oil. The percentage of rats protected from diarrhea was calculated 1 hour after the castor oil. Six rats were used per dose level.
(§1) Morphine sulfate was dissolved in distilled water.

[2] = Analgetic activity, radiant heat method (Rat Tail Flick Test); type: in vivo, male Sprague-Dawley rats; settings: Table I, oral, rats; for ED50: Rattus norvegicus, read-out: Analgetic Activity Rat Tail Flick ED50 (95% Confidence Limits)
Description: Analgetic activity was determined by the radiant heat method (Rat Tail Flick Test) of D'Amour and Smith [J. Pharm. Exp. Ther., 72, 74-79 (1941)] in Sprague-Dawley male rats (140-180 g). An all or none response was used to determine the dose of test material which produced at least a 100 percent increase in predose response time in 50 percent of the test animals (ED50). The ED50 values were based on at least 3 doses per drug (6 rats per dose level) and calculated by means of the Finney Dose Response procedure [Finney, D. J., Probit Analysis, University Press, Cambridge, England (1971)].
as §1

[3] = Suppression of body weight loss due to abstinence in withdrawn morphine-dependent rats; settings: oral administration, FIG. 1
[4] = Suppression of withdrawal jumping due to abstinence in withdrawn morphine-dependent mice
[5] = high oral doses (40-60 mg); cited from earlier work
[6] = even in its salt forms; cited from earlier work
[7] = Table II, d,l-Ia(1) subcutaneous, Ib(1) isomers oral
[8] = Table I, oral, rats, 1 hour after castor oil, read-out: Antidiarrheal Activity Castor Oil Test in Rats ED50 (95% Confidence Limits)
[9] = Table II, separate test, oral administration

**Q.** For `CN1CC[C@]23CCC(=O)C[C@@H]2[C@H]1Cc1ccc(O)cc13` (relative stereo) [d,l-Ia(1), d,l-3-Hydroxy-7-oxo-N-methylisomorphinan], which ED50 ([1]; sc, 1 h, Table II, separate test, subcutaneous administration, read-out: Antidiarrheal Activity ED50 (95% Confidence Limits) Castor Oil Test in Rats) is on record?
**A.** 0.56 mg/kg

**Q.** And the “antidiarrheal potency (in words)” value [1, 7]?
**A.** potent antidiarrheal agent

**Q.** Which ED50 ([1]; 1 h, Table II, separate test, oral administration, read-out: Antidiarrheal Activity ED50 (95% Confidence Limits) Castor Oil Test in Rats) does the source give for `CN1CC[C@]23CCC(=O)C[C@H]2[C@H]1Cc1ccc(O)cc13` (relative stereo) [d,l-Ib(1), d,l-3-Hydroxy-7-oxo-N-methylmorphinan] here?
**A.** 1.08 mg/kg

**Q.** What about the ED50 [1, 8] of the same molecule?
**A.** 1.41 mg/kg

**Q.** What about the “separation between antidiarrheal and analgetic activity (in words)” value ([1]; oral, rats) of the same molecule?
**A.** excellent separation between antidiarrheal and analgetic activity

**Q.** And the ED50 [2]?
**A.** > 150 mg/kg

**Q.** And the “prevention of body weight loss due to morphine withdrawal / ability to substitute for morphine (in words)” value [3]?
**A.** no significant prevention of body weight loss

**Q.** And the “Percent Suppression of Withdrawal Jumping” value (from here on “Percent Suppression”) ([4]; 9 mg/kg po)?
**A.** 0%

**Q.** What about the “Percent Suppression” value ([4]; 27 mg/kg po) of the same molecule?
**A.** 0%

**Q.** What about the “suppressant action on withdrawal jumping (in words)” value ([4]; oral, doses as high as 27 mg/kg) of the same molecule?
**A.** No suppressant action

**Q.** For `CCOC(=O)C1(c2ccccc2)CCN(CCC(C#N)(c2ccccc2)c2ccccc2)CC1` [Diphenoxylate], which “RAS (Relative Antidiarrheal Specificity)” value ([1]; rats) is on record?
**A.** 102

**Q.** What about the ED50 [1, 8] of the same molecule?
**A.** 0.11 mg/kg

**Q.** What about the “antidiarrheal potency (in words)” value ([1]; Table I, oral, rats) of the same molecule?
**A.** most potent antidiarrheal drug studied

**Q.** What about the “improvement of RAS over morphine” value ([1]; oral, rats) of the same molecule?
**A.** tenfold

**Q.** And the ED50 [2]?
**A.** 11.2 mg/kg

**Q.** What about the typical opioid effects [5] of the same molecule?
**A.** euphoria, suppression or morphine abstinence, and a morphine-like physical dependence after chronic administration

**Q.** What about the “solubility (in words)” value [6] of the same molecule?
**A.** highly insoluble

**Q.** What about the “suppression of withdrawal jumping (in words)” value ([4]; oral dose of 9 mg/kg) of the same molecule?
**A.** suppressed withdrawal jumping

**Q.** With `CN1CC[C@]23c4c5ccc(O)c4O[C@H]2[C@@H](O)C=C[C@H]3[C@H]1C5` [Morphine SO4] as the molecule, how does the “RAS (Relative Antidiarrheal Specificity)” value ([1]; rats) read?
**A.** 14

**Q.** What about the “Antidiarrheal Activity Castor Oil Test in Rats ED50 (95% Confidence Limits)” value ([1]; Table I, oral, rats, 1 hour after castor oil) of the same molecule?
**A.** 2.2 (1.5-3.1) mg/kg

**Q.** And the “separation between antidiarrheal and analgetic activity (in words)” value ([1]; oral, rats)?
**A.** poor separation between antidiarrheal and analgetic activity

**Q.** What about the “Analgetic Activity Rat Tail Flick ED50 (95% Confidence Limits)” value [2] of the same molecule?
**A.** 30.5 (26.3-35.0) mg/kg

**Q.** And the “ED50, Suppression of Withdrawal Jumping” value ([4]; sc, limits (0.9-3.1) printed on next line)?
**A.** 1.8

**Q.** For `COc1ccc2c3c1O[C@H]1C(=O)CC[C@@]4(O)[C@@H](C2)N(C)CC[C@]314` [Oxycodone], which “Percent Suppression” value ([4]; 10 mg/kg po) is on record?
**A.** 100%

**Q.** With `CN1CC[C@]23CCC(=O)C[C@H]2[C@H]1Cc1ccc(O)cc13` [d-Ib(1), d-3-Hydroxy-N-methyl-7-oxomorphinan] as the molecule, how does the “Antidiarrheal Activity ED50 (95% Confidence Limits) Castor Oil Test in Rats” value [1, 9] read?
**A.** < 1

**Q.** What does the source list for `CN1CC[C@]23CCC(=O)C[C@H]2[C@H]1Cc1ccc(O)cc13` [l-Ib(1), l-3-Hydroxy-N-methyl-7-oxomorphinan]?
**A.** Antidiarrheal Activity ED50 (95% Confidence Limits) Castor Oil Test in Rats [1, 9]: 0.64 (0.46-0.86); antidiarrheal potency (in words) [1, 7]: most potent isomer
